Measured values from the NIST ThermoML archive (doi:10.1021/acs.jced.7b00035).
“And” between values parts separate entries of the source, which are not always exact repeats. Identical values can stand only once.

Experiments:
[1] = 101.33 kPa, Liquid, Vibrating tube method
[2] = xn = mol fraction of the nth substance listed; settings: 100 kPa, Liquid, Vibrating tube method
[3] = excess molar enthalpy (molar enthalpy of mixing); xn = mol fraction of the nth substance listed; settings: 100 kPa, Liquid, Flow calorimetry

CC(=O)CC(C)C [4-methylpentan-2-one]
[1]
Settings | mass density [kg/m3]
288.15 K | 805.12
298.15 K | 795.98
308.15 K | 786.75
318.15 K | 777.46

CC(=O)C(C)C [3-methyl-2-butanone]
[1]
Settings | mass density [kg/m3]
288.15 K | 808.3
298.15 K | 798.51
308.15 K | 788.6
318.15 K | 778.62

CCCCC(C)=O [2-hexanone]
[1]
Settings | mass density [kg/m3]
288.15 K | 815.72
298.15 K | 806.7
308.15 K | 797.6
318.15 K | 788.45

CCCC(C)=O [pentan-2-one]
[1]
Settings | mass density [kg/m3]
288.15 K | 811.06
298.15 K | 801.41
308.15 K | 791.66
318.15 K | 781.83

CCC(=O)CC [pentan-3-one]
[1]
Settings | mass density [kg/m3]
288.15 K | 818.9
298.15 K | 809.16
308.15 K | 799.32
318.15 K | 789.41

CCCCC(C)=O [2-hexanone] + O
Settings | excess molar enthalpy, [3] | mass density, [2]
288.15 K, x1 = 0.00087 | -0.00256 kcal/mol and -0.00254 kcal/mol | 998.466 kg/m3 and 998.439 kg/m3
288.15 K, x1 = 0.00116 | -0.00343 kcal/mol and -0.00339 kcal/mol | 998.248 kg/m3 and 998.255 kg/m3
288.15 K, x1 = 0.00145 | -0.00423 kcal/mol and -0.00421 kcal/mol | 998.054 kg/m3
288.15 K, x1 = 0.001739 | -0.00503 kcal/mol and -0.00504 kcal/mol | 997.852 kg/m3 and 997.853 kg/m3
298.15 K, x1 = 0.000869 | -0.00197 kcal/mol | 996.347 kg/m3
298.15 K, x1 = 0.00087 | -0.00198 kcal/mol | 996.364 kg/m3
298.15 K, x1 = 0.001159 | -0.00264 kcal/mol | 996.128 kg/m3
298.15 K, x1 = 0.00116 | -0.00262 kcal/mol | 996.137 kg/m3
298.15 K, x1 = 0.001448 | -0.00321 kcal/mol | 995.926 kg/m3
298.15 K, x1 = 0.00145 | -0.00329 kcal/mol | 995.903 kg/m3
298.15 K, x1 = 0.001737 | -0.00394 kcal/mol | 995.664 kg/m3
298.15 K, x1 = 0.00174 | -0.0039 kcal/mol | 995.681 kg/m3
308.15 K, x1 = 0.000869 | -0.00138 kcal/mol | 993.309 kg/m3 and 993.32 kg/m3
308.15 K, x1 = 0.001158 | -0.0018 kcal/mol | 993.074 kg/m3
308.15 K, x1 = 0.001159 | -0.00181 kcal/mol | 993.08 kg/m3
308.15 K, x1 = 0.001447 | -0.00226 kcal/mol | 992.84 kg/m3
308.15 K, x1 = 0.001448 | -0.00224 kcal/mol | 992.834 kg/m3
308.15 K, x1 = 0.001735 | -0.00273 kcal/mol | 992.573 kg/m3
308.15 K, x1 = 0.001737 | -0.00273 kcal/mol | 992.571 kg/m3
318.15 K, x1 = 0.000868 | -0.000825 kcal/mol | 989.45 kg/m3
318.15 K, x1 = 0.000869 | -0.000817 kcal/mol | 989.446 kg/m3
318.15 K, x1 = 0.00087 | -0.000813 kcal/mol | 989.455 kg/m3
318.15 K, x1 = 0.001158 | -0.0011 kcal/mol | 989.173 kg/m3
318.15 K, x1 = 0.001159 | -0.00111 kcal/mol and -0.00109 kcal/mol | 989.168 kg/m3 and 989.197 kg/m3
318.15 K, x1 = 0.001447 | -0.00133 kcal/mol | 988.934 kg/m3
318.15 K, x1 = 0.001448 | -0.00135 kcal/mol and -0.00132 kcal/mol | 988.931 kg/m3 and 988.956 kg/m3
318.15 K, x1 = 0.001736 | -0.00161 kcal/mol | 988.678 kg/m3
318.15 K, x1 = 0.001737 | -0.00162 kcal/mol and -0.00165 kcal/mol | 988.651 kg/m3 and 988.636 kg/m3
